Reference: patent US20260007681A1, “INDOLE DERIVATIVES AS ESTROGEN RECEPTOR DEGRADERS” (REGENTS OF THE UNIVERSITY OF MICHIGAN, priority 2022, published 2026)

These compounds were tested against ER (Homo sapiens (Human), UniProt P03372) (assay: Western blot analysis (Compounds B1-B278)). Conditions: ER degradation by traditional Western blot; DC50 classes.
Type: cell-based
Method in brief: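 Compound-treated cells were lysed in RIPA buffer (Tris.HCl pH 7.6, 1% NP-40, deoxycholate, 0.1% SDS) with protease inhibitors; equal protein was resolved on 10% SDS-PAGE, transferred to PVDF and immunoblotted. Band intensities were quantified and normalized to GAPDH.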

Chain of ER (P03372 whole entry): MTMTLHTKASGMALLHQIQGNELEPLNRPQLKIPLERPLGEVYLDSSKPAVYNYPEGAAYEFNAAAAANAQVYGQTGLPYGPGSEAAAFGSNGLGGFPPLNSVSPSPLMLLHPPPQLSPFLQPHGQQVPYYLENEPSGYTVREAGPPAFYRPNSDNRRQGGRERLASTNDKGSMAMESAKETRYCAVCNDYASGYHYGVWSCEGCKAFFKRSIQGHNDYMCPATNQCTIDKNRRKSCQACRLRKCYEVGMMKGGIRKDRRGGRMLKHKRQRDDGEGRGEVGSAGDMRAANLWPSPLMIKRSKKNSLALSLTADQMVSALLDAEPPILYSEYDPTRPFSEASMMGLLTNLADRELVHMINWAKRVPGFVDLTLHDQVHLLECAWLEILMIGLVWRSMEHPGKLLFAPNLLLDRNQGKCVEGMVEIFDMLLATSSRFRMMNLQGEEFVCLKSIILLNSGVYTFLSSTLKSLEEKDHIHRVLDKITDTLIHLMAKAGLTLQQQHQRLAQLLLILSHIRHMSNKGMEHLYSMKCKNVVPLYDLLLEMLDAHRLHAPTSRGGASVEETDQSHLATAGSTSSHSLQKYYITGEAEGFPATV

Structure (SMILES)	Traditional Western Degradation Potency
COc1cc([C@H]2CC[C@H](C(=O)N3CCC(N4Cc5cc6c(cc5C4)C(=O)N(C4CCC(=O)NC4=O)C6=O)CC3)CC2)ncc1[C@@H]1c2[nH]c3ccccc3c2C[C@@H](C)N1CC(F)F (stereo partly drawn) [Compound B108, 6-(1-((1R,4r)-4-(5-((1R,3R)-2-(2,2-difluoroethyl)-3-methyl-2,3,4,9-tetrahydro-1H-pyrido[3,4-b]indol-1-yl)-4-methoxypyridin-2-yl)cyclohexane-1-carbonyl)piperidin-4-yl)-2-(2,6-dioxopiperidin-3-yl)-6,7-dihydropyrrolo[3,4-f]isoindole-1,3(2H,5H)-dione]	C (“C”: >100 nM)
C[C@@H]1Cc2c([nH]c3ccccc23)[C@@H](c2ncc(C3=CCC(C(=O)N4CCC(N5Cc6cc7c(cc6C5)C(=O)N(C5CCC(=O)NC5=O)C7=O)CC4)CC3)cc2F)N1CC(F)F (stereo partly drawn) [Compound B109, 6-(1-(4-(6-((1S,3R)-2-(2,2-difluoroethyl)-3-methyl-2,3,4,9-tetrahydro-1H-pyrido[3,4-b]indol-1-yl)-5-fluoropyridin-3-yl)cyclohex-3-ene-1-carbonyl)piperidin-4-yl)-2-(2,6-dioxopiperidin-3-yl)-6,7-dihydropyrrolo[3,4-f]isoindole-1,3(2H,5H)-dione]	C (“C”: >100 nM)
C[C@@H]1Cc2c([nH]c3ccccc23)[C@@H](c2c(F)cc(C3CCC(C(=O)N4CCC(N5Cc6cc7c(cc6C5)C(=O)N(C5CCC(=O)NC5=O)C7=O)CC4)CC3)cc2F)N1CC(F)(F)CO (stereo partly drawn) [Compound B110, 6-(1-(4-(4-((1R,3R)-2-(2,2-difluoro-3-hydroxypropyl)-3-methyl-2,3,4,9-tetrahydro-1H-pyrido[3,4-b]indol-1-yl)-3,5-difluorophenyl)cyclohexane-1-carbonyl)piperidin-4-yl)-2-(2,6-dioxopiperidin-3-yl)-6,7-dihydropyrrolo[3,4-f]isoindole-1,3(2H,5H)-dione]	C (“C”: >100 nM)
COc1cc([C@H]2CC[C@H](C(=O)N3CCC(N4Cc5cc6c(cc5C4)C(=O)N(C4CCC(=O)NC4=O)C6=O)CC3)CC2)ccc1[C@@H]1c2[nH]c3ccccc3c2C[C@@H](C)N1CC(F)F (stereo partly drawn) [Compound B111, 6-(1-((1R,4r)-4-(4-((1R,3R)-2-(2,2-difluoroethyl)-3-methyl-2,3,4,9-tetrahydro-1H-pyrido[3,4-b]indol-1-yl)-3-methoxyphenyl)cyclohexane-1-carbonyl)piperidin-4-yl)-2-(2,6-dioxopiperidin-3-yl)-6,7-dihydropyrrolo[3,4-f]isoindole-1,3(2H,5H)-dione]	B (“B”: 10-100 nM)
COc1cc([C@H]2CC[C@@H](C(=O)N3CCC(N4Cc5cc6c(cc5C4)C(=O)N(C4CCC(=O)NC4=O)C6=O)CC3)CC2)ccc1[C@@H]1c2[nH]c3ccccc3c2C[C@@H](C)N1CC(F)F (stereo partly drawn) [Compound B112, 6-(1-((1S,4s)-4-(4-((1R,3R)-2-(2,2-difluoroethyl)-3-methyl-2,3,4,9-tetrahydro-1H-pyrido[3,4-b]indol-1-yl)-3-methoxyphenyl)cyclohexane-1-carbonyl)piperidin-4-yl)-2-(2,6-dioxopiperidin-3-yl)-6,7-dihydropyrrolo[3,4-f]isoindole-1,3(2H,5H)-dione]	C (“C”: >100 nM)
COc1nc(C2CCC(C(=O)N3CCC(N4Cc5cc6c(cc5C4)C(=O)N(C4CCC(=O)NC4=O)C6=O)CC3)CC2)ccc1[C@@H]1c2[nH]c3ccccc3c2C[C@@H](C)N1CC(F)F (stereo partly drawn) [Compound B113, 6-(1-(4-(5-((1R,3R)-2-(2,2-difluoroethyl)-3-methyl-2,3,4,9-tetrahydro-1H-pyrido[3,4-b]indol-1-yl)-6-methoxypyridin-2-yl)cyclohexane-1-carbonyl)piperidin-4-yl)-2-(2,6-dioxopiperidin-3-yl)-6,7-dihydropyrrolo[3,4-f]isoindole-1,3(2H,5H)-dione]	C (“C”: >100 nM)
COc1cc(C2CCC(C(=O)N3CCC(N4Cc5cc6c(cc5C4)C(=O)N(C4CCC(=O)NC4=O)C6=O)CC3)CC2)cnc1[C@@H]1c2[nH]c3ccccc3c2C[C@@H](C)N1CC(F)F (stereo partly drawn) [Compound B115, 6-(1-(4-(6-((1S,3R)-2-(2,2-difluoroethyl)-3-methyl-2,3,4,9-tetrahydro-1H-pyrido[3,4-b]indol-1-yl)-5-methoxypyridin-3-yl)cyclohexane-1-carbonyl)piperidin-4-yl)-2-(2,6-dioxopiperidin-3-yl)-6,7-dihydropyrrolo[3,4-f]isoindole-1,3(2H,5H)-dione]	C (“C”: >100 nM)
C[C@@H]1Cc2c([nH]c3ccccc23)[C@@H](c2cnc(N3CC4(CCC(CN5Cc6cc7c(cc6C5)C(=O)N(C5CCC(=O)NC5=O)C7=O)CC4)C3)nc2)N1CC(C)(C)F (stereo partly drawn) [Compound B184, 2-(2,6-dioxopiperidin-3-yl)-6-((2-(5-((1R,3R)-2-(2-fluoro-2-methylpropyl)-3-methyl-2,3,4,9-tetrahydro-1H-pyrido[3,4-b]indol-1-yl)pyrimidin-2-yl)-2-azaspiro[3.5]nonan-7-yl)methyl) 6,7-dihydropyrrolo[3,4-f]isoindole-1,3(2H,5H)-dione]	C (“C”: >100 nM)
C[C@@H]1Cc2c([nH]c3ccccc23)[C@@H](c2cnc(N3CC4(CCC(CN5Cc6cc7c(cc6C5)C(=O)N(C5CCC(=O)NC5=O)C7=O)CC4)C3)nc2)N1CC(F)F (stereo partly drawn) [Compound B185, 6-((2-(5-((1R,3R)-2-(2,2-difluoroethyl)-3-methyl-2,3,4,9-tetrahydro-1H-pyrido[3,4-b]indol-1-yl)pyrimidin-2-yl)-2-azaspiro[3.5]nonan-7-yl)methyl)-2-(2,6-dioxopiperidin-3-yl)-6,7-dihydropyrrolo[3,4-f]isoindole-1,3(2H,5H)-dione]	C (“C”: >100 nM)
C[C@@H]1Cc2c([nH]c3ccccc23)[C@@H](c2cnc(N3CCC4(CC3)CC(CN3Cc5cc6c(cc5C3)C(=O)N(C3CCC(=O)NC3=O)C6=O)C4)nc2)N1CC(C)(C)F (stereo partly drawn) [Compound B186, 2-(2,6-dioxopiperidin-3-yl)-6-((7-(5-((1R,3R)-2-(2-fluoro-2-methylpropyl)-3-methyl-2,3,4,9-tetrahydro-1H-pyrido[3,4-b]indol-1-yl)pyrimidin-2-yl)-7-azaspiro[3.5]nonan-2-yl)methyl)-6,7-dihydropyrrolo[3,4-f]isoindole-1,3(2H,5H)-dione]	C (“C”: >100 nM)
C[C@@H]1Cc2c([nH]c3ccccc23)[C@@H](c2cnc(N3CCC4(CC3)CC(CN3Cc5cc6c(cc5C3)C(=O)N(C3CCC(=O)NC3=O)C6=O)C4)nc2)N1CC(F)F (stereo partly drawn) [Compound B187, 6-((7-(5-((1R,3R)-2-(2,2-difluoroethyl)-3-methyl-2,3,4,9-tetrahydro-1H-pyrido[3,4-b]indol-1-yl)pyrimidin-2-yl)-7-azaspiro[3.5]nonan-2-yl)methyl)-2-(2,6-dioxopiperidin-3-yl)-6,7-dihydropyrrolo[3,4-f]isoindole-1,3(2H,5H)-dione]	B (“B”: 10-100 nM)
